Assay results as given in patent US9193669B2, “Compounds for treating ophthalmic diseases and disorders” (Acucela Inc., priority 2008, dated 2015).

What follows are compounds tested against T1, isomerase (Mus musculus, UniProt Q91ZQ5) (assay: In vivo murine isomerase assay). Conditions: mouse, po, 4 h; read-out: % Inibition 1 mg/kg, 4 h.
T1 construct: The recovery of 11-cis-retinal after bleaching can be used to estimate the activity of isomerase in vivo; from tissue; host or cells: eyes of living mice (CD-1; Balb/c also named)
T1 sequence (Q91ZQ5 1-533): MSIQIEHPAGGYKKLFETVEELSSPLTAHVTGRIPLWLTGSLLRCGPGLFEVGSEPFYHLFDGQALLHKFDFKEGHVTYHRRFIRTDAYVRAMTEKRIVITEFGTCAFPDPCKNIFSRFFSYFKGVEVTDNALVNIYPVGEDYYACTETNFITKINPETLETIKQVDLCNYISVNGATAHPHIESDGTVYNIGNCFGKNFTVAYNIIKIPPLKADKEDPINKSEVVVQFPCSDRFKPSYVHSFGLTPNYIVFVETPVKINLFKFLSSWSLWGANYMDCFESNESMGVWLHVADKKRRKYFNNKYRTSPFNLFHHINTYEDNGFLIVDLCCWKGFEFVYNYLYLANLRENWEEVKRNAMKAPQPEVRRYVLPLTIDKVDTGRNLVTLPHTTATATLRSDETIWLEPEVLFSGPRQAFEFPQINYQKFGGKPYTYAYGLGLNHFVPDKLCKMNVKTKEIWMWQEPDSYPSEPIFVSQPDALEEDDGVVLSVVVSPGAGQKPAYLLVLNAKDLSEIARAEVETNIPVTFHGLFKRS
Design: species or system mice
Experimental: The capability of compounds described herein to inhibit isomerase was determined by an in vivo murine isomerase assay. Brief exposure of the eye to intense light (“photobleaching” of the visual pigment or simply “bleaching”) is known to photo-isomerize almost all 11-cis-retinal in the retina. The recovery of 11-cis-retinal after bleaching can be used to estimate the activity of isomerase in vivo. Delayed recovery, as represented by lower 11-cis-retinal oxime levels, indicates inhibition of isomerization reaction. Procedures were performed essentially as described by Golczak et al., Proc. Natl. Acad. Sci. […] Mice were gavaged with the compounds described in the present disclosure. After about 2-24 hours in the dark, the mice were exposed to photobleaching of about 5,000 lux of white light for 10 minutes. The mice were allowed to recover for about 2 hours in the dark. The animals were then sacrificed by carbon dioxide inhalation. Retinoids were extracted from the eye and the regeneration of 11-cis-retinal was assessed at various time intervals. […] After the mice were sacrificed, the eyes were immediately removed and placed in liquid nitrogen for storage. The eyes were placed in about 500 μL of bis-tris propane buffer (10 mM, pH˜7.3) and about 20 μl of 0.8M hydroxylamine (pH˜7.3). The eyes were cut up into small pieces with small iris scissors and then thoroughly homogenized at 30000 rpm with a mechanical homogenizer (Polytron PT 1300 D) in the tube until no visible tissue remains. About 500 μL of methanol and about 500 μL of heptane was added to each tube. The tubes were attached to a vortexer so that the contents are mixed thoroughly for about 15 minutes in room temperature. […] The samples were analyzed on an Agilent 1100 HPLC system with normal phase column: SILICA (Beckman Coutlier, dp 5 μm, […]). […] Loading volume for each sample was about 100 μl; detection wavelength is 360 nm. The area under the curve for 11-cis-retinal oxime was calculated by Agilent Chemstation software and recorded manually. Data processing was performed using Prizm software. Positive control mice (no compound administered) were sacrificed fully dark-adapted and the eye retinoids analyzed. Light (bleached) control mice (no compound administered) were sacrificed and retinoids isolated and analyzed immediately after light treatment. A time course study was also performed to determine the isomerase inhibitory activity of compounds of the present disclosure. Female or male mice (such as Balb/c mice) (at least 4/group) received 0 to about 5 mg of compounds (in water) per kg bodyweight orally, by gavage. The animals were then “photo-bleached” (about 5000 Lux white light for about 10 minutes) at about 2, 4, 8, 16 and 24 hours after dosing, and returned to darkness to allow recovery of the 11-cis-retinal content of the eyes. Mice were sacrificed about 2 hours after bleaching, eyes were enucleated, and retinoid content was analyzed by HPLC. A dose response in vivo isomerase inhibition study is performed with compounds of the present disclosure. Male or female mice (such as Balb/c mice)(at least about 8/group) are dosed orally with about 0.01 to 25 mg/kg of the compounds of HCl salts of the compounds in sterile water as solution, and photobleached about 4 hours after dosing. Recovery and retinoid analysis is performed as described above. Dark control mice are vehicle-only treated, sacrificed fully dark adapted without light treatment, and analyzed. […]

inhibition in vivo at 1 mg/kg [%]	Structure (SMILES)
95.3 ± 2.7	NCCC(O)c1cccc(NCC2CCCCC2)c1 (stereo not drawn) [Example 11, 3-amino-1-(3-(cyclohexylmethylamino)phenyl)propan-1-ol]
9.16 ± 9.41	NCCC(=O)c1cccc(NCC2CCCCC2)c1 [Example 12, 3-amino-1-(3-(cyclohexylmethylamino)phenyl)propan-1-one]
1.98 ± 6.02	CCCCCNc1cccc(C(O)CCN)c1 (stereo not drawn) [Example 13, 3-amino-1-(3-(pentylamino)phenyl)propan-1-ol]
8.12 ± 16.2	CCCCCNc1cccc(C(=O)CCN)c1 [Example 14, 3-amino-1-(3-(pentylamino)phenyl)propan-1-one]
-0.003 ± 19.4	NCCC(O)c1cccc(NC(=O)C2CCCCC2)c1 (stereo not drawn) [Example 15, N-(3-(3-amino-1-hydroxypropyl)phenyl)cyclohexanecarboxamide]
17.1 ± 5.32	NCCC(=O)c1cccc(NC(=O)C2CCCCC2)c1 [Example 16, N-(3-(3-aminopropanoyl)phenyl)cyclohexanecarboxamide]
9.52 ± 4.6	NCCCc1cccc(NCC2CCCC2)c1 [Example 31, 3-(3-aminopropyl)-N-(cyclopentylmethyl)aniline]
4.32 ± 7.88	CCC(CC)CNc1cccc(CCCN)c1 [Example 33, 3-(3-aminopropyl)-N-(2-ethylbutyl)aniline]
95.2 ± 1.41	CCC(CC)CNc1cccc(C(O)CCN)c1 (stereo not drawn) [Example 35, 3-amino-1-(3-(2-ethylbutylamino)phenyl)propan-1-ol]
-1.4 ± 2.78	CCC(CC)CNc1cccc(C(=O)CCN)c1 [Example 36, 3-Amino-1-(3-(2-ethylbutylamino)phenyl)propan-1-one]
101.6 ± 0.49	CCCC(CCC)CNc1cccc(C(O)CCN)c1 (stereo not drawn) [Example 37, 3-Amino-1-(3-(2-propylpentylamino)phenyl)propan-1-ol]
69.9 ± 6.85	NCCC(O)c1cccc(NCC2CCCC2)c1 (stereo not drawn) [Example 39, 3-Amino-1-(3-(cyclopentylmethylamino)phenyl)propan-1-ol]
1.24 ± 9.74	NCCC(=O)c1cccc(NCC2CCCC2)c1 [Example 40, 3-Amino-1-(3-(cyclopentylmethylamino)phenyl)propan-1-one]
-0.34 ± 6.12	NCCC(O)c1cccc(NCCCCCOCc2ccccc2)c1 (stereo not drawn) [Example 41, 3-Amino-1-(3-(5-(benzyloxy)pentylamino)phenyl)propan-1-ol]
4.08 ± 4.84	COc1ccccc1CNc1cccc(C(O)CCN)c1 (stereo not drawn) [Example 47, 3-Amino-1-(3-((2-methoxybenzyl)amino)phenyl)propan-1-ol]
0.21 ± 8.88	COc1ccccc1CNc1cccc(C(=O)CCN)c1 [Example 48, 3-Amino-1-(3-(2-methoxybenzylamino)phenyl)propan-1-one]
4.54	NCCC(O)c1cccc(NCCc2ccccc2)c1 (stereo not drawn) [Example 49, 3-Amino-1-(3-(phenethylamino)phenyl)propan-1-ol]
2.01 ± 1.3	[2H]C([2H])(CN)C(O)c1cccc(NC(=O)C2CCCCC2)c1 (stereo not drawn) [Example 57, N-(3-(3-amino-2,2-dideutero-1-hydroxypropyl)phenyl)cyclohexanecarboxamide]

inhibition in vivo at 1 mg/kg [%]	Structure (SMILES)
6.94 ± 5.15	[2H]C([2H])(CN)C(O)c1cccc(NS(=O)(=O)C2CCCCC2)c1 (stereo not drawn) [Example 58, N-(3-(3-amino-2,2-dideutero-1-hydroxypropyl)phenyl)cyclohexanesulfonamide]
4.24 ± 13	NCCC(O)c1cccc(NCCCc2ccccc2)c1 (stereo not drawn) [Example 59, 3-Amino-1-(3-(3-phenylpropylamino)phenyl)propan-1-ol]
-1.33 ± 5.2	NCCC(=O)c1cccc(NCCCc2ccccc2)c1 [Example 60, 3-Amino-1-(3-(3-phenylpropylamino)phenyl)propan-1-one]
3.83	NCCCc1cccc(NCCCc2ccccc2)c1 [Example 64, 3-(3-Aminopropyl)-N-(3-phenylpropyl)aniline]
-1.24 ± 4.43	CCCC(CCC)C(=O)Nc1cccc(C(O)CCN)c1 (stereo not drawn) [Example 73, N-(3-(3-Amino-1-hydroxypropyl)phenyl)-2-propylpentanamide]
85 ± 3.06	[2H]C(O)(CCN)c1cccc(NCC2CCCCC2)c1 (stereo not drawn) [Example 81, 3-Amino-1-(3-(cyclohexylmethylamino)phenyl)-1-deuteropropan-1-ol]
75.1 ± 8.03	[2H]C([2H])(CN)C(O)c1cccc(NCC2CCCCC2)c1 (stereo not drawn) [Example 82, 3-Amino-1-(3-(cyclohexylmethylamino)phenyl)-2,2-dideuteropropan-1-ol]
89.5 ± 2.09	[2H]C([2H])(N)CC(O)c1cccc(NCC2CCCCC2)c1 (stereo not drawn) [Example 83, 3-Amino-1-(3-(cyclohexylmethylamino)phenyl)-3,3-dideuteropropan-1-ol]
3.17 ± 4.97	CN(CC1CCCCC1)c1cccc(C(O)CCN)c1 (stereo not drawn) [Example 90, 3-Amino-1-(3-((cyclohexylmethyl)(methyl)amino)phenyl)propan-1-ol]
95.5 ± 1.07	[2H]C1(CNc2cccc(C(O)CCN)c2)CCCCC1 (stereo not drawn) [Example 91, 3-Amino-1-(3-((1-deuterocyclohexyl)methylamino)phenyl)propan-1-ol]
-0.53 ± 4.53	[2H]C1([2H])C([2H])([2H])C([2H])([2H])C([2H])(C(=O)Nc2cccc(C(O)CCN)c2)C([2H])([2H])C1([2H])[2H] (stereo not drawn) [Example 93, N-(3-(3-Amino-1-hydroxypropyl)phenyl)-1,2,2,3,3,4,4,5,5,6,6-undecadeuterocyclohexanecarboxamide]
-3.83 ± 5.52	NCCCc1cccc(NS(=O)(=O)c2ccccc2)c1 [Example 99, N-(3-(3-Aminopropyl)phenyl)benzenesulfonamide]
1.82 ± 10.5	NCCC(O)c1cccc(NS(=O)(=O)c2ccccc2)c1 (stereo not drawn) [Example 101, N-(3-(3-Amino-1-hydroxypropyl)phenyl)benzenesulfonamide]
-2.77 ± 6.53	NCCC(=O)c1cccc(NS(=O)(=O)c2ccccc2)c1 [Example 103, N-(3-(3-Aminopropanoyl)phenyl)benzenesulfonamide]
97.9 ± 1.5	[2H]/C(=C(/[2H])C(O)(CCC)CCC)c1cccc(C(O)CCN)c1 (stereo not drawn) [Example 117, (E)-4-(2-(3-(3-Amino-1-hydroxypropyl)phenyl)-1,2-dideuterovinyl)heptan-4-ol]
27.5 ± 9.6	[2H]C([2H])(N)CC(O)c1cccc(C#CC2(O)CCCCC2)c1 (stereo not drawn) [Example 121, 1-((3-(3-amino-3,3-dideutero-1-hydroxypropyl)phenyl)ethynyl)cyclohexanol]
84.9 ± 4.5	[2H]C([2H])(CN)C(O)c1cccc(C#CC2CCCCC2)c1 (stereo not drawn) [Example 122, 3-amino-1-(3-(cyclohexylethynyl)phenyl)-2,2-dideuteropropan-1-ol]
91.4 ± 2.5	[2H]C([2H])(N)CC(O)c1cccc(C#CC2CCCCC2)c1 (stereo not drawn) [Example 123, 3-amino-1-(3-(cyclohexylethynyl)phenyl)-3,3-dideuteropropan-1-ol]
